Key:
[1] = Fluorescent hydrogel phase glucose responsive assay (10 mM PBS, pH 7.4, 310 K)
[2] = Affinity electrochemistry - cyclic voltammetry glucose responsive assay (10 mM PBS, pH 7.4, 298 K); details: for Applied potential / Current response: FIM 0.5 mM, reduction process
Description: Affinity electrochemistry measurements were made using a Metrohm Autolab PGSTAT101 potentiostat with a BIDSC-FET interface and screen-printed electrodes DRP-200BT. Data collection and analysis were performed using Nova software by Metrohm Autolab. Further analysis and processing were performed in Microsoft Excel. Measurements obtained at 298 K and at pH 7.4 unless otherwise stated.
Separate samples containing a mixture of GBM, FIM and D-glucose at various concentrations in 10 mM PBS were prepared. 50 μL of each sample was pipetted onto the surface of the screen-printed electrode and the cyclic voltammogram acquired using the CV staircase protocol within the Nova software, using the following settings: Start potential at −0.4 V, upper vertex potential at 0.6 V, lower vertex potential at −0.4 V, stop potential at −0.39756 V, number of scans=3, scan rate at 0.1 V/s and Step at 0.00244 V. The data for each voltammogram was exported into Microsoft excel, processed and compared to give the glucose responsive electrochemical results.
Changes in applied potential and current response were monitored using the reduction process observed during the cyclic voltammogram. Measurements obtained at 298 K and pH 7.4 in 10 mM PBS medium.

For `C#CCCC(=O)N[C@@H](Cc1cn(CCOCCOCCOCCOc2ccc(CCO[C@@H]3O[C@H](CO)[C@@H](O)[C@H](O)[C@H]3O)cc2)nn1)C(=O)NCC(=O)Nc1ccc2c(c1)C(=O)OC21c2ccc(O)cc2Oc2cc(O)ccc21` [FIM1], the “Change in Emmax for FIM at a particular D-glucose concentration” value (shortened to “Change in Emmax for FIM”) ([1]; 20 mM D-glucose, GBM1 10 uM, FIM 1 uM, Ex 470/Emmax 530 nm, hydrogel D (azido PEG star polymer)) was 10%, the “Change in Emmax for FIM” value ([1]; 50 mM D-glucose, GBM1 10 uM, FIM 1 uM, Ex 470/Emmax 530 nm, hydrogel D (azido PEG star polymer)) was 20% and the “Reversibility of emission on cycling (FIG. 5)” value ([1]; hydrogel D with GBM1 50 μM and FIM1 5 μM pre-incorporated, cycling 10 mM PBS / 20 mM D-glucose, 310 K, pH 7.4) was “shows reversibility of hydrogel”.

With `O=C(CNC(=O)[C@H](Cc1cn(CCOCCOCCOCCOc2ccc(CCO[C@@H]3O[C@H](CO)[C@@H](O)[C@H](O)[C@H]3O)cc2)nn1)NC(=O)OC[C@@H]1[C@@H]2CCC#CCC[C@@H]21)Nc1ccc2c(c1)C(=O)OC21c2ccc(O)cc2Oc2cc(O)ccc21` [FIM17] the “Change in Emmax for FIM” value ([1]; 20 mM D-glucose, GBM30 100 uM, FIM 10 uM, Ex 480/Emmax 520 nm, hydrogel H (amino azide dextran/PEG)) was 120%, the “Change in Emmax for FIM” value ([1]; 20 mM D-glucose, GBM39 50 uM, FIM 2 uM, Ex 470/Emmax 530 nm, hydrogel D (azido PEG star polymer)) was 70% and the “Change in Emmax for FIM” value ([1]; 50 mM D-glucose, GBM39 50 uM, FIM 2 uM, Ex 470/Emmax 530 nm, hydrogel D (azido PEG star polymer)) was 175%. For the same molecule, the “Change in Emmax for FIM” value ([1]; 60 mM D-glucose, GBM39 50 uM, FIM 2 uM, Ex 470/Emmax 530 nm, hydrogel D (azido PEG star polymer)) was 215%, the “Change in Emmax for FIM” value ([1]; 80 mM D-glucose, GBM39 50 uM, FIM 2 uM, Ex 470/Emmax 530 nm, hydrogel D (azido PEG star polymer)) was 295% and the “Change in Emmax for FIM” value ([1]; 100 mM D-glucose, GBM39 50 uM, FIM 2 uM, Ex 470/Emmax 530 nm, hydrogel D (azido PEG star polymer)) was 380%.

With `C#CCCC(=O)NCCCC[C@H](NC(=O)[c-]1cccc1)C(=O)NCCOCCOCCOCCn1cc(-c2ccc(CCO[C@@H]3O[C@H](CO)[C@@H](O)[C@H](O)[C@H]3O)cc2)nn1.[Fe+2].c1cc[cH-]c1` [FIM38] the Applied potential ([2]; 0 mM D-glucose, GBM 0 mM) was 0.327 V, the Current response ([2]; 0 mM D-glucose, GBM 0 mM) was −4.25 ×10^−6 A and the Applied potential ([2]; 0 mM D-glucose, GBM15 1 mM) was 0.280 V. The Current response ([2]; 0 mM D-glucose, GBM15 1 mM) was −3.1 ×10^−6 A, the Applied potential ([2]; 1 mM D-glucose, GBM15 1 mM) was 0.285 V and the Current response ([2]; 1 mM D-glucose, GBM15 1 mM) was −3.75 ×10^−6 A. For the same molecule, the Applied potential ([2]; 2 mM D-glucose, GBM15 1 mM) was 0.300 V, the Current response ([2]; 2 mM D-glucose, GBM15 1 mM) was −4.25 ×10^−6 A and the Applied potential ([2]; 3 mM D-glucose, GBM15 1 mM) was 0.306 V. For the same molecule, the Current response ([2]; 3 mM D-glucose, GBM15 1 mM) was −4.4 ×10^−6 A, the Applied potential ([2]; 4 mM D-glucose, GBM15 1 mM) was 0.310 V and the Current response ([2]; 4 mM D-glucose, GBM15 1 mM) was −4.5 ×10^−6 A. For the same molecule, the Applied potential ([2]; 5 mM D-glucose, GBM15 1 mM) was 0.310 V, the Current response ([2]; 5 mM D-glucose, GBM15 1 mM) was −4.5 ×10^−6 A and the “Glucose responsive cyclic voltammetry (FIG. 10)” value ([2]; GBM15 1 mM and FIM38 0.5 mM in 10 mM PBS, addition of D-glucose) was “shows a shift in both applied potential (V) and current response (A)”.

With `C#CCN(C)c1ccc2nc3ccc(N(C)Cc4cn(CC(CO[C@H]5O[C@@H](CO)[C@H](O)[C@@H](O)[C@@H]5O)c5ccccc5)nn4)cc3[s+]c2c1` (stereo partly shown) [FIM52] the Applied potential ([2]; 1 mM D-glucose, GBM15 1 mM) was −0.287 V, the Current response ([2]; 1 mM D-glucose, GBM15 1 mM) was −9.11 ×10^−6 A and the Applied potential ([2]; 2 mM D-glucose, GBM15 1 mM) was −0.258 V. For the same molecule, the Current response ([2]; 2 mM D-glucose, GBM15 1 mM) was −9.52 ×10^−6 A, the Applied potential ([2]; 10 mM D-glucose, GBM15 1 mM) was −0.239 V and the Current response ([2]; 10 mM D-glucose, GBM15 1 mM) was −10.0 ×10^−6 A. For the same molecule, the Applied potential ([2]; 20 mM D-glucose, GBM15 1 mM) was −0.231 V, the Current response ([2]; 20 mM D-glucose, GBM15 1 mM) was −11.1 ×10^−6 A and the Applied potential ([2]; 50 mM D-glucose, GBM15 1 mM) was −0.231 V. For the same molecule, the Current response ([2]; 50 mM D-glucose, GBM15 1 mM) was −11.4 ×10^−6 A.

Source: patent US20250172566A1, “SACCHARIDE SENSING SYSTEMS” (CARBOMETRICS LIMITED, priority 2022, published 2025)
